Measurements reported in patent US20250145631A1, “HETEROCYCLIC COMPOUND ACTING ON G12D MUTANT KRAS PROTEIN” (Astellas Pharma Inc., priority 2022, published 2025).

Tests used:
Assay type in all cases: cell-based
KRAS G12D = biological target: T1, KRAS G12D (Homo sapiens, UniProt P01116, G12D); test: KRAS degradation activity by Cell ELISA in AsPC-1 cells (Test Example 1); conditions: Cell ELISA; for Dmax: ASPC1, overnight treatment, read-out: Dmax (degradation rate at the concentration showing highest degradation); for DC50: overnight treatment, read-out: DC50 (50% degradation concentration of KRAS)
T1 construct: host or cells: AsPC-1 (human pancreatic cancer line)
Procedure: The KRAS degradation activity of test compounds was evaluated by measuring the expression levels of KRAS G12D by Cell ELISA.
AsPC-1 cells were seeded at 20 μL per well on 384-well plates (from Greiner bio-one) to give 2.0×10^4 cells per well. As for the cell culture conditions, RPMI 1640 (from Sigma-Aldrich) medium containing 10% fetal bovine serum (from Cytiva) was used in the presence of 5% CO2 at 37° C.
The next day, the test compounds (10 points having final concentrations in the range of 10 μM to 0.3 nM) and DMSO (from FUJIFILM Wako Pure Chemical Corporation), which was the solvent for the test compounds, as a negative control were diluted 500-fold with a fresh medium and were added at 20 μL per well. The cells were cultured overnight. The next day, the culture supernatant was removed, and 4% paraformaldehyde phosphate buffer (from FUJIFILM Wako Pure Chemical Corporation) was added at 20 μL per well. The plates were allowed to stand for 30 minutes at room temperature to thus immobilize the cells. Then, the supernatant was removed, and 0.1% Triton X-100 (from Amersham Biosciences)-containing Phosphate buffered saline (PBS; from FUJIFILM Wako Pure Chemical Corporation) was added at 20 μL per well. After allowing to stand for 10 minutes at room temperature, the supernatant was removed. PBS was added at 25 μL per well, and the supernatant was removed to thus wash each well. The washing was performed twice in total. Next, the supernatant was removed, and 0.5% sodium dodecyl sulfate (SDS; from Invitrogen)-containing PBS was added at 20 μL per well. After allowing to stand at room temperature for 10 minutes, the supernatant was removed by a centrifugal operation (using a centrifugal dehydrator machine, the supernatant was removed by the same method hereinafter). PBS was added at 25 μL per well, and the supernatant was removed to thus wash each well. The washing was performed twice in total. The supernatant was removed, and blocking solution (Intercept Blocking Buffer; from Li—COR Biosciences) was added at 20 μL per well. After allowing to stand for 30 minutes at room temperature, the supernatant was removed, and a solution obtained by diluting anti-β-actin antibody (Anti-beta Actin antibody [mAbcam 8226]-Loading Control; from abcam) 1,000-fold with blocking solution and a solution obtained by diluting anti-Ras (G12D Mutant Specific) antibody (Ras (G12D Mutant Specific) (D8H7) Rabbit mAb #14429; from Cell Signaling Technology) and anti-β-actin antibody (from abcam) 1,000-fold with blocking solution were respectively added to positive control wells and the other wells at 15 μL per well as a primary antibody. The plates were allowed to stand overnight at 4° C.
The next day, the supernatant was removed. PBS was added at 25 μL per well, and the supernatant was removed to thus wash each well. The washing was performed twice in total. The supernatant was removed, and a solution obtained by diluting Donkey anti-Mouse IgG H&L (IRDye 680RD) (from Li—COR Biosciences) and Goat anti-Rabbit IgG H&L (IRDye 800CW) (from Li—COR Biosciences) 1,000-fold with blocking solution was added at 15 μL per well as a secondary antibody. A solution obtained by diluting Donkey anti-Mouse IgG H&L (IRDye 680RD) (from Li—COR Biosciences) 1,000-fold with blocking solution was added to a positive control well as a secondary antibody. After allowing to stand for 1 hour at room temperature, the supernatant was removed. PBS was added at […], and the supernatant was removed to thus wash each well. The washing was performed twice in total. After removing the supernatant, the plates were dried with air at room temperature for 2 hours or more, and the 700 nm and 800 nm fluorescent signals were measured with Aerius (from Li—COR Biosciences). […]

[1] = test system: phosphorylation of ERK (Thr202/Tyr204); test: ERK phosphorylation inhibitory effect by Cell ELISA in AsPC-1 cells (Test Example 2); conditions: Homo sapiens, ASPC1, overnight treatment, Cell ELISA, read-out: IC50 (ERK phosphorylation inhibition)
Procedure: The ERK phosphorylation inhibitory effect of test compounds was evaluated by measuring phosphorylation of threonine 202 (Thr202) and tyrosine 204 (Tyr204) of ERK located downstream of the KRAS signal by Cell ELISA.
AsPC-1 cells were seeded on 384-well plates at 20 µL/well to give 2.0×10^4 cells per well. As for the cell culture conditions, RPMI 1640 medium containing 10% fetal bovine serum was used in the presence of 5% CO2 at 37° C.
The next day, the test compounds (10 points having final concentrations in the range of 10 μM to 0.3 nM), trametinib (MEK inhibitor) of a final concentration of […] as positive control and DMSO, which was the solvent for the test compounds, as negative control were diluted 500-fold with a fresh medium and were added at 20 μL per well. The cells were cultured overnight. After culturing, 30% glyoxal solution (40% glyoxal [from Nacalai Tesque]was diluted with PBS) was quickly added at 30 μL per well, and the plates were allowed to stand for 120 minutes at room temperature to thus immobilize the cells. Then, the plates were centrifuged to remove the supernatant (using a centrifugal dehydrator machine, the supernatant was removed by the same method hereinafter), and 0.10% Triton X-100-containing PBS was added at 20 μL per well. After allowing to stand for 10 minutes at room temperature, the supernatant was removed, and the same operation was further repeated. Next, 0.5% SDS-containing PBS was added at 20 μL per well, and after allowing to stand at room temperature for 30 minutes, the supernatant was removed. Subsequently, blocking solution (Intercept Blocking Buffer) was added at 20 μL per well, and the plates were allowed to stand for 1 hour at room temperature. The supernatant was removed, and an ERK (Thr202/Tyr204) phosphorylation antibody (Phospho-p44/42 MAPK (Erk 1/2) (Thr202/Tyr204) (D13.14.4E) XP Rabbit mAb; from Cell Signaling Technology) diluted 2,500-fold with blocking solution was added at 15 μL per well as a primary antibody. The plates were allowed to stand at 4° C. overnight.
The next day, the supernatant was removed. 0.05% Tween-20 (from Thermo Fisher Scientific)-containing PBS was added at 50 μL per well, and the supernatant was removed to thus wash each well. The washing was performed three times in total. After washing, Goat anti-Rabbit IgG H&L (IRDye 800CW) diluted 1,000-fold with blocking solution was added at 15 μL per well as a secondary antibody, and the plates were allowed to stand for 1 hour at room temperature. The supernatant was removed, and each well was washed three times with 0.05% Tween-20-containing PBS in the same manner as after the primary antibody reaction. After removing the supernatant, the plates were dried with air at room temperature for 3 hours or more, and the 800-nm fluorescent signals were measured with Aerius.
With the signaling value at the time of addition of DMSO taken as 100% and with the signaling value at the time of addition of […] trametinib taken as 0%, the 50% inhibitory concentration values (IC50) were calculated by Sigmoid-Emax nonlinear regression analysis. The calculated 50% inhibition represents the inhibition at the highest concentration evaluated (10 μM) for a compound that exceeds the concentration in the evaluation range.
(§1) In the tables presented below, Ex represents Example No. The IC50 of Ex. 13, Ex. 15, and Ex. 16 were calculated using the molecular weights as tetrahydrochloride, and the IC50 of Ex. 14 was calculated using the molecular weight as trihydrochloride.

[2] = test system: human G12D mutant KRAS-positive pancreatic cancer line AsPC-1; test: Non-anchorage-dependent cell growth inhibitory effect, spheroid 3D culture (Test Example 3); conditions: ASPC1, 144 h, AsPC-1 spheroid 3D culture, 6 days; for IC50: CellTiter Glo 2.0, read-out: IC50 (non-anchorage-dependent cell growth inhibition); for inhibition at 10 µM: read-out: cell growth inhibition at the highest concentration evaluated
Procedure: The non-anchorage-dependent cell growth inhibitory effect of test compounds was evaluated by spheroid 3D cell culture.
AsPC-1 cells were seeded on low-cell-adhesive round bottom 384-well plates (PrimeSurface: from Sumitomo Bakelite) at 20 μL (or […])/well to give 5×10^2 cells per well. As for the cell culture conditions, RPMI 1640 medium containing 10% fetal bovine serum was used in the presence of 5% CO2 at 37° C.
The next day, the test compounds (10 points or 6 points having final concentrations in the range of 10 μM to 0.3 nM) and DMSO, which was the solvent for the test compounds, as a negative control were diluted 500-fold (or 100-fold) with a fresh medium and were added at 20 μL (or […]) per well. After culturing in the presence of 5% C02 at 37° C. for 6 days, CellTiter Glo 2.0 (from Promega) was added at 20 μL per well. After stirring with a plate mixer (from FINEPCR) at normal temperature for 1 hour, the luminescent signals were measured with ARVO X3 (from PerkinElmer).
With the signaling value in treatment with DMSO taken as 100% and with the signaling value in the medium alone without cells taken as 0%, the 50% inhibitory concentration values (IC50) were calculated by Sigmoid-Emax nonlinear regression analysis. The calculated 50% inhibition represents the inhibition at the highest concentration evaluated (10 μM) for a compound that exceeds the concentration in the evaluation range.
as §1

T1 sequence (P01116 1-188 isoform P01116-2 G12D): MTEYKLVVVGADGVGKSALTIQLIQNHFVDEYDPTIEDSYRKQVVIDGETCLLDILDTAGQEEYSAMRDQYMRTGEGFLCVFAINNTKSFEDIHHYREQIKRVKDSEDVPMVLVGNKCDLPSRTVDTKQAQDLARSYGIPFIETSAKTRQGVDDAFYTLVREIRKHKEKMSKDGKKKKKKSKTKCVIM

Compound	Dmax (KRAS G12D)	DC50 (KRAS G12D)	IC50 [1]	IC50 [2]	inhibition at 10 µM [2]
Cc1c(F)cc2[nH]ncc2c1-c1c(C2CC2)cc2c(N3C[C@@H]4C[C@H]3CN4)nc(OC3CCOCC3)nc2c1OCc1ccc(C(=O)N2C3CCC2CN(Cc2ccc4c(c2)C(=O)N(C2CCC(=O)NC2=O)C4=O)C3)cc1 (stereo partly drawn) [Example 5, 5-[(8-{4-[({(7M)-6-cyclopropyl-4-[(1S,4S)-2,5-diazabicyclo[2.2.1]heptan-2-yl]-7-(6-fluoro-5-methyl-1H-indazol-4-yl)-2-[(oxan-4-yl)oxy]quinazolin-8-yl}oxy)methyl]benzoyl}-3,8-diazabicyclo[3.2.1]octan-3-yl)methyl]-2-(2,6-dioxopiperidin-3-yl)-1H-isoindole-1,3(2H)-dione]	84%	308 nM	329 nM	490 nM	–
Cc1c(F)cc2[nH]ncc2c1-c1c(C2CC2)cc2c(N3C[C@@H]4C[C@H]3CN4)nc(OC[C@@H]3CCCO3)nc2c1OCc1ccc(C(=O)N2CCN(Cc3ccc4c(c3)n(C)c(=O)n4C3CCC(=O)NC3=O)C[C@@H]2C)cc1 (stereo partly shown) [Example 40]	88%	23 nM	30 nM	46 nM	–
Cc1c(F)cc2[nH]ncc2c1-c1c(C2CC2)cc2c(N3C[C@@H]4C[C@H]3CN4)nc(OC3CCOCC3)nc2c1OCc1ccc(C(=O)N2CCC(CNc3cccc4c3C(=O)N(C3CCC(=O)NC3=O)C4=O)CC2)cc1 (stereo partly shown) [Example 30]	71%	1480 nM	1280 nM	1440 nM	–
CO[C@@H](C)COc1nc(N(C)[C@H]2CCNC2)c2cc(C3CC3)c(-c3c(C)c(F)cc4[nH]ncc34)c(OCc3ccc(C(=O)N4CCN(Cc5ccc6c(c5)n(C)c(=O)n6C5CCC(=O)NC5=O)C[C@@H]4C)cc3)c2n1 (stereo partly shown) [Example 18]	77%	85 nM	250 nM	217 nM	–
Cc1c(F)cc2[nH]ncc2c1-c1c(C2CC2)cc2c(N3C[C@@H]4C[C@H]3CN4)nc(OC3CCOCC3)nc2c1OCc1ccc(C(=O)N2CCN(Cc3ccc4c(c3)n(C)c(=O)n4C3CCC(=O)NC3=O)CC2)cc1 (stereo partly shown) [Example 7]	80%	35 nM	60 nM	73 nM	–
Cc1c(F)cc2[nH]ncc2c1-c1c(C2CC2)cc2c(N3C[C@@H]4C[C@H]3CN4)nc(OC3CCOCC3)nc2c1OCc1ccc(C(=O)N2CCN(Cc3ccc4c(c3)oc(=O)n4C3CCC(=O)NC3=O)CC2)cc1 (stereo partly shown) [Example 3]	83%	53 nM	94 nM	120 nM	–
Cc1c(F)cc2[nH]ncc2c1-c1c(C2CC2)cc2c(N3C[C@@H]4C[C@H]3CN4)nc(OC3CCOCC3)nc2c1OCc1ccc(C(=O)N2CCN(Cc3cccc4c3oc(=O)n4C3CCC(=O)NC3=O)CC2)cc1 (stereo partly shown) [Example 6]	49%	2730 nM	3940 nM	–	50%
Cc1c(F)cc2[nH]ncc2c1-c1c(C2CC2)cc2c(N3C[C@@H]4C[C@H]3CN4)nc(OC3CCOCC3)nc2c1OCc1ccc(C(=O)N2CCC(CN3CCN(c4cc5c(cc4F)C(=O)N(C4CCC(=O)NC4=O)C5=O)CC3)CC2)cc1 (stereo partly shown) [Example 2]	59%	4900 nM	4770 nM	–	55%
Cc1c(N2CCC(=O)NC2=O)ccnc1OC1CCN(C(=O)c2ccc(COc3c(-c4c(C)c(F)cc5[nH]ncc45)c(C4CC4)cc4c(N5C[C@@H]6C[C@H]5CN6)nc(OC5CCOCC5)nc34)cc2)CC1 (atropisomer, axis not shown) [Example 21]	52%	4960 nM	2280 nM	852 nM	–
Cc1nc(OC2CCN(C(=O)c3ccc(COc4c(-c5c(C)c(F)cc6[nH]ncc56)c(C5CC5)cc5c(N6C[C@@H]7C[C@H]6CN7)nc(OC6CCOCC6)nc45)cc3)CC2)ccc1N1CCC(=O)NC1=O (atropisomer, axis not shown) [Example 17]	52%	4270 nM	1340 nM	684 nM	–
